Laboratory results from paper PMC8400120, “Synthesis of Novel Methyl 7-[(Hetero)arylamino]thieno[2,3-b]pyrazine-6-carboxylates and Antitumor Activity Evaluation: Effects in Human Tumor Cells Growth, Cell Cycle Analysis, Apoptosis and Toxicity in Non-Tumor Cells” (Molecules, 2021).
“Also recorded” adds a separate entry of the source.

Legend:
[1] = test system: gastric adenocarcinoma (AGS); experiment: SRB cell growth inhibition assay, AGS; assay type: cell-based, human; details: for GI50: AGS, SRB assay, 48 h incubation, mean ± SD
Experimental: (§1) The antitumor potential of the di(hetero)arylamines 2a–2o was evaluated using the sulforhodamine B (SRB) assay to establish some structure–activity relationships. Four human tumor cell lines (acquired from Leibniz-Institut DSMZ) were used: gastric adenocarcinoma (AGS), colorectal adenocarcinoma (CaCo-2), breast adenocarcinoma (MCF7), and non-small-cell lung cancer (NCI-H460), as well as a non-tumor cell line from African green monkey kidney (Vero) to evaluate the toxicity of the compounds. Ellipticine was used as a positive control, and the results are presented in GI50 values (µM) (Table 2).
(§2) Each cell line was prepared in 96-well plates, at the required density (1.0 × 10^4 cells/well) and incubated for 24 h to achieve cell attachment. The solutions of the compounds were applied and incubated for another 48 h. GI50 values (µM) corresponding to the compound concentration that inhibited 50% of cell growth were determined using the sulforhodamine B assay. Two separate tests were carried out for each compound, in duplicate, with the effects expressed as mean values and standard deviation (SD). Ellipticine was used as a positive control.

[2] = test system: colorectal adenocarcinoma (CaCo-2); experiment: SRB cell growth inhibition assay, CaCo-2; assay type: cell-based, human; details: for GI50: CaCo-2, SRB assay, 48 h incubation, mean ± SD
Experimental: as §1, §2

breast carcinoma (MCF7) = experiment: SRB cell growth inhibition assay, MCF7; assay type: cell-based, human; details: MCF-7, SRB assay, 48 h incubation, mean ± SD
Experimental: as §1, §2

[3] = test system: non-small-cell lung carcinoma (NCI-H460); experiment: SRB cell growth inhibition assay, NCI-H460; assay type: cell-based, human; details: 48 h incubation, mean ± SD
Experimental: as §1, §2

[4] = SRB cell growth inhibition assay, non-tumor Vero cells (toxicity); assay type: cell-based; details: African green monkey, Vero cells (non-tumor kidney cell line), 48 h incubation, mean ± SD
Experimental: as §1, §2

AGS cells [5] = experiment: Flow cytometric cell cycle analysis (PI staining); assay type: cell-based, human; details: at GI50 concentration, 72 h, vs blank
Experimental: This assay is based on the measurement of the DNA content in the PI-labeled nuclei. […] Cell cycle analysis was performed using propidium iodide (PI) staining and flow cytometry. This assay is established on the measurement of the DNA content of nuclei labeled with PI. Following this, the cells were staining according to the protocol PI/RNASE Solution (Immunostep, Spain, Salamanca). The harvested cells corresponding to 2 × 10^5 to 1 × 10^6 cells, were centrifuged for 5 min at 300g, and the supernatant was removed. The cells were fixed and added to 200 µL of 70% ethanol and left in the ethanol at 4 °C for 30 min. Following this, the cells were washed once in 2 mL phosphate-buffered saline (PBS) and centrifuged for 5 min at 300g and resuspended in 500 μL of PI solution (PI/RNASE) and incubated in the dark, at room temperature, for 15 min. Cell cycle phase distribution was evaluated using an Accuri C6 flow cytometer (BD Biosciences, San Jose, CA, USA). The DNA content of at least 20,000 cells was counted per sample, and the percentage of cells in different phases (G0/G1, S, and G2/M phases) of the cell cycle was evaluated using BD Accuri C6 software (BD Biosciences, San Jose, CA, USA). Ellipticine was used as a positive control at its GI50 concentration for AGS cell line.

AGS cells [6] = experiment: Flow cytometric apoptosis detection (FITC Annexin V/PI); assay type: cell-based, human; details: at GI50 concentration, 72 h
Experimental: Apoptosis induction was performed using the Fluorescein Isothiocyanate (FITC) Annexin V Apoptosis Kit (BD Biosciences, San Jose, CA, USA), and measured by flow cytometry for compounds 2b, 2f, and 2g (Figure 3). FITC Annexin V staining was used to determine the percentage of cells within a population that are actively undergoing apoptosis. […] Apoptosis detection was performed using the Fluorescein Isothiocyanate (FITC) Annexin V Apoptosis Kit (BD Biosciences, San Jose, CA, USA) and flow cytometry. FITC Annexin V staining is used to determine the percentage of cells within a population that are actively undergoing apoptosis. The cells were washed twice with PBS and resuspended cells in 1× Binding Buffer (10 mM HEPES/NaOH, pH 7.4, 140 mM NaCl, 2.5 mM CaCl2) at a concentration of 1 × 10^6 cells/mL. Following this, 100 μL of the solution (1 × 10^5 cells) was transferred to a 5 mL culture tube and 5 μL of FITC Annexin V (BD Biosciences, San Jose, CA, USA) and 5 μL of PI (BD Biosciences, San Jose, CA, USA) were added to each tube, and they were incubated in the dark, at room temperature, for 15 min. Finally, 400 μL of 1× Binding Buffer was added to each tube. Next, 30,000 cells were acquired using an Accuri C6 flow cytometer (BD Biosciences, San Jose, CA, USA), and the percentage of cell distribution was evaluated with Accuri C6 software (BD Biosciences, San Jose, CA, USA). Ellipticine was used as a positive control at its GI50 concentration for AGS cell line.

COC(=O)c1sc2nccnc2c1Nc1ccccc1 [2a, Methyl 7-(Phenylamino)thieno[2,3-b]pyrazine-6-carboxylate]
GI50 ([1]; Homo sapiens, 48 h): 95 ± 9 µM
GI50 ([2]; Homo sapiens, Caco-2, 48 h): 38 ± 2 µM
GI50 (breast carcinoma (MCF7); Homo sapiens, MCF7, 48 h): 97 ± 2 µM
GI50 ([3]; Homo sapiens, NCI-H460, 48 h): 122 ± 9 µM
GI50 at 48 h [4]: 120 ± 6 µM
melting point: 154 to 156 °C

COC(=O)c1sc2nccnc2c1Nc1ccccc1OC [2b, Methyl 7-[(2-Methoxyphenyl)amino]thieno[2,3-b]pyrazine-6-carboxylate]
GI50 ([1]; Homo sapiens, 48 h): 9.8 ± 0.2 µM
Selectivity for AGS among the cell lines used ([1]; comparison of GI50 values): selective for this cell line
GI50 ([2]; Homo sapiens, Caco-2, 48 h): 36 ± 2 µM
GI50 (breast carcinoma (MCF7); Homo sapiens, MCF7, 48 h): 127 ± 9 µM
GI50 ([3]; Homo sapiens, NCI-H460, 48 h): 45 ± 1 µM
GI50 at 48 h [4]: 21.29 ± 0.03 µM
Effect on G0/G1 phases of AGS cell cycle (AGS cells [5]): cell cycle arrest in G0/G1 phases, although this result was not statistically significant
Effect on G2/M phase of AGS cell cycle (AGS cells [5]): did not present any difference in the percentage of cells compared to the blank
High number of cells in apoptosis (expected from GI50 values) (AGS cells [6]): not verified
Cell death in apoptosis assay (AGS cells [6]; vs blank): moderated cell death compared to the blank

COC(=O)c1sc2nccnc2c1Nc1cccc(OC)c1 [2c, Methyl 7-[(3-Methoxyphenyl)amino]thieno[2,3-b]pyrazine-6-carboxylate]
GI50 ([1]; Homo sapiens, 48 h): 98 ± 3 µM
GI50 ([2]; Homo sapiens, Caco-2, 48 h): 56 ± 1 µM
GI50 (breast carcinoma (MCF7); Homo sapiens, MCF7, 48 h): 160 ± 6 µM
GI50 ([3]; Homo sapiens, NCI-H460, 48 h): 96 ± 1 µM
GI50 at 48 h [4]: 94 ± 3 µM
melting point: 171 to 173 °C

COC(=O)c1sc2nccnc2c1Nc1ccc(OC)cc1 [2d, Methyl 7-[(4-Methoxyphenyl)amino]thieno[2,3-b]pyrazine-6-carboxylate]
GI50 ([1]; Homo sapiens, 48 h): 59 ± 3 µM
GI50 ([2]; Homo sapiens, Caco-2, 48 h): 60 ± 2 µM
GI50 (breast carcinoma (MCF7); Homo sapiens, MCF7, 48 h): 136 ± 3 µM
GI50 ([3]; Homo sapiens, NCI-H460, 48 h): 52.8 ± 0.3 µM
GI50 at 48 h [4]: 127 ± 3 µM

COC(=O)c1sc2nccnc2c1Nc1ccc(OC)cc1OC [2e, Methyl 7-[(2,4-Dimethoxyphenyl)amino]thieno[2,3-b]pyrazine-6-carboxylate]
GI50 ([1]; Homo sapiens, 48 h): 34 ± 2 µM
GI50 ([2]; Homo sapiens, Caco-2, 48 h): 56 ± 2 µM
GI50 (breast carcinoma (MCF7); Homo sapiens, MCF7, 48 h): 140 ± 7 µM
GI50 ([3]; Homo sapiens, NCI-H460, 48 h): 200 ± 3 µM
GI50 at 48 h [4]: 138 ± 8 µM
melting point: 159 to 161 °C

COC(=O)c1sc2nccnc2c1Nc1cc(OC)c(OC)c(OC)c1 [2h, Methyl 7-[(3,4,5-Trimethoxyphenyl)amino]thieno[2,3-b]pyrazine-6-carboxylate]
GI50 ([1]; Homo sapiens, 48 h): 33 ± 3 µM
GI50 ([2]; Homo sapiens, Caco-2, 48 h): 9.2 ± 0.3 µM
GI50 (breast carcinoma (MCF7); Homo sapiens, MCF7, 48 h): 105.7 ± 0.5 µM
GI50 ([3]; Homo sapiens, NCI-H460, 48 h): 77 ± 6 µM
GI50 at 48 h [4]: 53 ± 5 µM

COC(=O)c1sc2nccnc2c1Nc1ccccc1F [2i, Methyl 7-[(2-Fluorophenyl)amino]thieno[2,3-b]pyrazine-6-carboxylate]
GI50 ([1]; Homo sapiens, 48 h): 48 ± 4 µM
GI50 ([2]; Homo sapiens, Caco-2, 48 h): 88.4 ± 0.2 µM
GI50 (breast carcinoma (MCF7); Homo sapiens, MCF7, 48 h): 128 ± 5 µM
GI50 ([3]; Homo sapiens, NCI-H460, 48 h): 76 ± 1 µM
GI50 at 48 h [4]: 117 ± 10 µM

COC(=O)c1sc2nccnc2c1Nc1cccc(F)c1 [2j, Methyl 7-[(3-Fluorophenyl)amino]thieno[2,3-b]pyrazine-6-carboxylate]
GI50 ([1]; Homo sapiens, 48 h): 86 ± 6 µM
GI50 ([2]; Homo sapiens, Caco-2, 48 h): 142 ± 11 µM
GI50 (breast carcinoma (MCF7); Homo sapiens, MCF7, 48 h): 96 ± 6 µM
GI50 ([3]; Homo sapiens, NCI-H460, 48 h): 69 ± 7 µM
GI50 at 48 h [4]: 149 ± 4 µM

COC(=O)c1sc2nccnc2c1Nc1ccc(F)cc1 [2k, Methyl 7-[(4-Fluorophenyl)amino]thieno[2,3-b]pyrazine-6-carboxylate]
GI50 ([1]; Homo sapiens, 48 h): 118 ± 2 µM
GI50 ([2]; Homo sapiens, Caco-2, 48 h): 62 ± 4 µM
GI50 (breast carcinoma (MCF7); Homo sapiens, MCF7, 48 h): 160 ± 7 µM
GI50 ([3]; Homo sapiens, NCI-H460, 48 h): 84 ± 2 µM
GI50 at 48 h [4]: 149 ± 7 µM
melting point: 171 to 173 °C

COC(=O)c1sc2nccnc2c1Nc1cccnc1 [2l, Methyl 7-[(Pyridin-3-yl)amino]thieno[2,3-b]pyrazine-6-carboxylate]
GI50 ([1]; Homo sapiens, 48 h): 63.3 ± 0.1 µM
GI50 ([2]; Homo sapiens, Caco-2, 48 h): 45 ± 3 µM
GI50 (breast carcinoma (MCF7); Homo sapiens, MCF7, 48 h): 116 ± 5 µM
GI50 ([3]; Homo sapiens, NCI-H460, 48 h): 122 ± 11 µM
GI50 at 48 h [4]: 110 ± 5 µM
melting point: 150 to 152 °C

COC(=O)c1sc2nccnc2c1-n1cccc1 [2m, Methyl 7-(1H-pyrrol-1-yl)thieno[2,3-b]pyrazine-6-carboxylate]
GI50 ([1]; Homo sapiens, 48 h): 88.6 ± 0.1 µM
GI50 ([2]; Homo sapiens, Caco-2, 48 h): 43.3 ± 0.3 µM
GI50 (breast carcinoma (MCF7); Homo sapiens, MCF7, 48 h): 128 ± 2 µM
GI50 ([3]; Homo sapiens, NCI-H460, 48 h): 49 ± 2 µM
GI50 at 48 h [4]: 140 ± 12 µM
melting point: 166 to 168 °C

COC(=O)c1sc2nccnc2c1Nc1ccc(C#N)cc1 [2n, Methyl 7-[(4-Cyanophenyl)amino]thieno[2,3-b]pyrazine-6-carboxylate]
GI50 ([1]; Homo sapiens, 48 h): 39 ± 3 µM
GI50 ([2]; Homo sapiens, Caco-2, 48 h): 10.9 ± 0.4 µM
Selectivity for CaCo-2 among the cell lines used ([2]; comparison of GI50 values): selective for this cell line; also recorded: selective against CaCo-2 cell line
GI50 (breast carcinoma (MCF7); Homo sapiens, MCF7, 48 h): 103 ± 2 µM
GI50 ([3]; Homo sapiens, NCI-H460, 48 h): 105 ± 8 µM
GI50 at 48 h [4]: 48 ± 4 µM
melting point: 214 to 216 °C

COC(=O)c1sc2nccnc2c1Nc1ccccc1[N+](=O)[O-] [2o, Methyl 7-[(2-Nitrophenyl)amino]thieno[2,3-b]pyrazine-6-carboxylate]
GI50 ([1]; Homo sapiens, 48 h): 55 ± 0.3 µM
GI50 ([2]; Homo sapiens, Caco-2, 48 h): 31.2 ± 0.2 µM
GI50 (breast carcinoma (MCF7); Homo sapiens, MCF7, 48 h): 103 ± 3 µM
GI50 ([3]; Homo sapiens, NCI-H460, 48 h): 43 ± 2 µM
GI50 at 48 h [4]: 92 ± 8 µM
melting point: 225 to 227 °C

Cc1c2ccncc2c(C)c2c1[nH]c1ccccc12 [Ellipticine, reference compound]
GI50 [1]: 0.9 ± 0.1 µM
GI50 ([1]; Homo sapiens, 48 h): ≤ 1 µM
GI50 [2]: 0.8 ± 0.1 µM
GI50 ([2]; Homo sapiens, Caco-2, 48 h): ≤ 1 µM
GI50 (breast carcinoma (MCF7); Homo sapiens, MCF7, 48 h): ≤ 1 µM
GI50 (breast carcinoma (MCF7)): 1.02 ± 0.004 µM
GI50 [3]: 1.01 ± 0.01 µM
GI50 ([3]; Homo sapiens, NCI-H460, 48 h): ≤ 1 µM
GI50 at 48 h [4]: 0.6 ± 0.1 µM
